Reference: US8008452B2, “Phosphorylated Ndr kinase” (Novartis Forschungesstiftung, Zweigniederlassung Friedrich …, priority 2002, dated 2011)
“Also recorded” adds a separate entry of the source.

What was measured:
[1] = tested on: HA-NDR1; assay: HA-NDR1 kinase assay on 12CA5 immunoprecipitates from transfected, treated COS-1 cells; format: cell-based, human; parameters: dose or concentration left out as unconfirmed
[2] = tested on: HA-NDR1; assay: as above; format: cell-based, human
Protocol: In some experiments, the cells were treated for 60 min with 1 microM okadaic acid in 0.1% N,N-dimethylformamide (DMF) (Alexis Corp.), 50 microM BAPTA-AM (1,2-bis (o-aminophenoxy) ethane-N,N,N′,N′-tetraacetic acid tetra (acetoxy-methyl)ester) in 0.1% diimethylsulfoxide (DMSO; Sigma), or 20 microM thapsigargin in 0.1% DMSO (Alomone) 24 hours after transfection.
Transfected and treated COS-1 cells were washed once with ice-cold PBS, and harvested by rubber policeman in 1 ml ice-cold PBS containing 1 mM Na3VO4 and 20 mM beta-glycerophosphate before lysis in 500 microliters of IP buffer (20 mM Tris-HCl pH 8.0, 150 mM NaCl, 1% Nonidet P-40, 10% glycerol, 1 mM Na3VO4, 20 mM beta-glycerolphosphate, 1 microM microcystin-LR, 50 mM NaF, 0.5 mM PMSF, 4 microM leupeptin, 1 mM benzamidine, and 1 tablet/10 ml IP of Complete protease inhibitors (Roche)). Lysates were centrifuged at 20 000 g for 20 min and triplicate aliquots (200 microg) of supernatant were precleared with protein A-Sepharose (Amersham Pharmacia Biotech) for 60 min and mixed subsequently for 3 h at 4° C. with 12CA5 antibody prebound to protein A-Sepharose (˜1 microg antibody bound to 2 microl beads). The beads were then washed twice with IP buffer, once for 10 min with IP buffer containing 1 M NaCl, once again for 10 min with IP buffer, and finally twice with 20 mM Tris-HCl pH 7.5 containing 4 microM leupeptin and 1 mM benzamidine. Thereafter, beads were resuspended in 30 microliters buffer containing 20 mM Tris-HCl pH 7.5, 10 mM MgCl2, 1 mM DTT, 100 microM [gamma-^32P]ATP (˜0.1 microCi/microliter), 1 microM cAMP-dependent protein kinase inhibitor peptide PKI (Bachem), 4 microM leupeptin, 1 mM benzamidine, 1 microM microcystin-LR, and 1 mM NDR1 substrate peptide ([…]). After 60 min incubation at 30° C., 15 microliters of supernatant were removed, and phosphate incorporation into the substrate peptide determined as described for GST-NDR1 above.
COS-1 cells expressing either wild type HA-NDR1 or the indicated mutants were treated for 1 h with 1 microM okadaic acid or with solvent alone. HA-tagged NDR kinase variants were then immunoprecipitated (out of 100 microgram of detergent extracts) with 12CA5 monoclonal antibody and assayed for kinase activity by a peptide kinase assay as described above.
Mock-transfected or HA-NDR1-expressing COS-1 cells were treated for 1 h with […], 50 microM BAPTA-AM, and […] or with solvent (0.1% DMF or 0.1% DMSO) alone. 12CA5 immunoprecipitates (out of 100 microgram protein extract) were then assayed using the peptide kinase assay for NDR1 kinase activity.
To test whether hMOB1 plays a role in NDR activation, myc-hMOB1 or the empty vector was cotransfected with HA-NDR1 in COS1 cells and treated with OA. 12CA5 immunoprecipitates were then assayed using the peptide kinase assay for HA-NDR kinase activity. […] GST-MOB and GST respectively was added to immunoprecipitated HA-NDR and kinase reaction were performed. The reactions were resolved on a 10% SDS PAGE and the radioactivity visualised by using a phosphoimager.

[3] = tested on: HA-NDR1; assay: Immunodetection of HA-NDR1 phosphorylated on Ser281 or Thr444 from COS-1 cells; format: cell-based, human; details: for phosphorylation of HA-NDR1 on Ser281: immunoblot with anti-P-S281; for phosphorylation of HA-NDR1 on Thr444: immunoblot with anti-P-T444
Protocol: Either 1 microgram GST-NDR1 or HA-NDR1 immunoprecipitated from 100 microgram COS-1 detergent extracts as described above was separated on 10% SDS-PAGE and immunoblotted 2 h at RT or overnight at 4° C. with anti-Ser281P antisera (1:1000) in the presence of 50 microg/ml competing unphosphopeptide or anti-Thr444P purified antibody (1:500). Both antibodies were detected with horseradish peroxidase-conjugated donkey anti-rabbit Ig antibody (Amersham biosciences) and developed by ECL (chemiluminescence; Amersham Pharmacia Biotech).
To examine this possibility, extracts from transfected COS-1 cells were analyzed with the anti-Ser281P and anti-Thr444P antisera. Protein extracts (10 microg) from transfected COS-1 cells were immunoblotted with 12CA5 to verify similar expression levels of each HA-NDR1 construct. For the analysis of phosphorylation status, 12CA5-immunoprecipitated HA-NDR1 variants (out of 100 microg protein extract) were analysed by immunoblotting with phosphospecific antibodies directed against P-S281 or P-T444.
Protein extracts (10 microg) from mock- and HA-NDR1-transfected COS-1 cells were also immunoblotted with 12CA5 to verify equal expression levels of HA-NDR1 construct. For the analysis of phosphorylation status, 12CA5-immunoprecipitated HA-NDR1 (out of 100 microgram protein extract) was analysed by immunoblotting with phosphospecific antibodies directed against P-S281 or P-T444.

[4] = tested on: myc-hMOB1; assay: Co-immunoprecipitation of HA-NDR and myc-hMOB1 from COS-1 cells; format: binding, human; details: COS1 cells cotransfected with HA-NDR and myc-hMOB1
Protocol: HA-tagged hNDR and myc-tagged hMOB1 were cotransfected in COS1 cells, which were stimulated with okadaic acid or solvent alone. After cell lysis and extract preparation, HA-NDR was immunoprecipitated and co-immunoprecipitated myc-hMOB1 detected or Myc-hMOB1 was immunoprecipitated and co-immunoprecipitated HA-NDR detected.
HA-NDR, wt and mutants, and myc-hMOB1 were cotransfected into COS-1 cells and the cells were treated with OA prior to lysis. HA-NDR was immunoprecipitated and the coimmunoprecipitated myc-hMOB1 detected. […] Furthermore, the two important in vivo phosphorylation sites of NDR, serine-281 in the activation segment and the hydrophobic motif site threonine-444 in the C-terminal regulatory domain were tested, as well as the threonine 74 site in the N-terminal regulatory domain, for their role in NDR-MOB interaction.
HA-NDR N-terminal point mutants and myc-mob1 were co-transfected into COS1 cells which were treated with OA prior to lysis. HA-NDR mutants were immunoprecipitated and coimmunoprecipitated myc-hMOB1 detected.
In this Example, the effect of treatment of COS1 cells with BAPTA-AM on the NDR-MOB Interaction was determined. HA-NDR and myc-MOB1 was cotransfected into COS1 cells and the cells were treated with BAPTA-AM and OA or the solvents alone prior to lysis. HA-NDR was immunoprecipitated and co-immunoprecipitated myc-MOB1 detected. The kinase activity of the HA-NDR immunoprecipitates was measured in a peptide kinase assay.

[5] = tested on: HA-NDR2; assay: HA-NDR2 protein kinase activity after cell treatment with okadaic acid or solvent; format: cell-based, human; details: for activation of NDR2 mutant by OA: cell treatment with OA; for basal kinase activity of NDR2 mutant: solvent alone, compared with HA-NDR2-WT
Protocol: All other procedures (including bacterial expression, kinase assays, immunodetection and mass spectrometry) were carried out essentially as described in the Methodology section above.
To further examine this NDR2 mutants were created in which either Ser-282 or Thr-442 were replaced by an alanine. Additionally an in vitro phosphorylation site mutant T75A essentially as described above, and a kinase dead mutant K119A was created for Ndr2. The protein kinase activity of each of these mutants was measured following cell treatment with okadaic acid (OA) or solvent alone. HA-NDR2-WT was potently stimulated (˜10-fold) by OA.

[6] = tested on: NDR2; assay: Western blot of NDR2 variants with phosphorylation site specific antibodies; format: cell-based, human
Text: This was described above for the corresponding mutants of NDR1.

Compound | effect on okadaic acid-stimulated NDR1 activity [1] | Spec. Activity (NDR1 kinase activity) [2] | phosphorylation of HA-NDR1 on Ser281 [3] | phosphorylation of HA-NDR1 on Thr444 [3] | effect of cell treatment on NDR-MOB interaction [4] | stimulation of HA-NDR2-WT kinase activity ([5]; cell treatment with OA versus solvent alone) | phosphorylation of NDR2 on Ser282 [6] | phosphorylation of NDR2 on T442 upon OA treatment [6] | activation of NDR2 mutant by OA [5] | basal kinase activity of NDR2 mutant [5] | increase of Ser282 phosphorylation after OA treatment [6]
CC(=O)OCOC(=O)CN(CC(=O)OCOC(C)=O)c1ccccc1OCCOc1ccccc1N(CC(=O)OCOC(C)=O)CC(=O)OCOC(C)=O [BAPTA-AM, 1,2-bis (o-aminophenoxy) ethane-N,N,N′,N′-tetraacetic acid tetra (acetoxy-methyl)ester] | dramatically reduced; also recorded: reduces OA induced NDR kinase activation | 0.2676 | declined almost to the baseline | declined almost to the baseline | reduction of the NDR-MOB interaction | – | – | – | – | – | –
C=C1[C@@H](O)[C@@H]2O[C@]3(CC[C@H](/C=C/[C@@H](C)[C@@H]4CC(C)=C[C@@]5(O[C@H](C[C@@](C)(O)C(=O)O)CC[C@H]5O)O4)O3)CC[C@H]2O[C@@H]1[C@@H](O)C[C@H](C)[C@H]1O[C@@]2(CCCCO2)CC[C@H]1C [okadaic acid, reference compound] | – | 10.142 | further enhanced | only became phosphorylated after okadaic acid treatment | dependent on stimulation of the cells with OA | ~10 fold | – | – | – | – | –
C/C=C(/C)C(=O)O[C@H]1C(C)=C2[C@H]([C@@H]1OC(=O)CCCCCCC)[C@@](C)(OC(C)=O)C[C@H](OC(=O)CCC)[C@@]1(O)[C@H]2OC(=O)[C@@]1(C)O [thapsigargin] | rescued | – | rescued | rescued | – | – | – | – | – | – | –
K119A: NDR2 kinase dead mutant K119A | – | – | – | – | – | – | not phosphorylated on S282 | becomes phosphorylated upon OA treatment | didn't show any activation by OA | nearly undetectable levels | –
NDR2 wt: human NDR2 wild type (SEQ ID NO:3), HA-tagged | – | – | – | – | – | – | becomes phosphorylated on Ser282 | becomes phosphorylated upon OA treatment | – | – | increased after OA treatment
S282A: NDR2 mutant, Ser-282 replaced by alanine | – | – | – | – | – | – | – | becomes phosphorylated upon OA treatment | still activated | markedly reduced basal activity | –
T75A: NDR2 in vitro phosphorylation site mutant T75A | – | – | – | – | – | – | becomes phosphorylated on Ser282 | becomes phosphorylated upon OA treatment | still activated | markedly reduced basal activity | –
T442A: NDR2 mutant, Thr-442 replaced by alanine | – | – | – | – | – | – | becomes phosphorylated on Ser282 | – | still activated | markedly reduced basal activity | increased after OA treatment
